In patent publication US7655808B2, “Leptomycin compounds” (priority 2004, dated 2010):
pEC50, pIC50: −log10 of the molar value. Where two headings read alike, the source gives them in different places.

Experiments:
MCF-7 = assay: Inhibition of proliferation / cytotoxicity, MCF-7; format: cell-based; details: MCF-7 human breast cancer cell line, read-out: Tumor Cell Line (IC50, nM) MCF-7
Description: (§1) The biological activity of compounds of this invention was evaluated by measuring their inhibitory effect on the proliferation of various tumor cell lines. MCF-7, A549, and SKOV-3 are human breast, lung, and ovary cancer cell lines, respectively. NCI/ADR is a multi-drug resistant breast cancer cell line. CCRF-CEM and CCRF-CEM/PTX are human leukemia cell lines, the latter being a paclitaxel-resistant subline. LNCaP is a prostate cancer cell line.

NCI/ADR = assay: Inhibition of proliferation / cytotoxicity, NCI/ADR; format: cell-based; details: NCI/ADR multi-drug resistant breast cancer cell line, read-out: Tumor Cell Line (IC50, nM) NCI/ADR
Description: as §1

A549 = assay: Inhibition of proliferation / cytotoxicity, A549; format: cell-based; details: A549 human lung cancer cell line; read-out: Tumor Cell Line (IC50, nM) A549
Description: as §1

SKOV-3 = assay: Inhibition of proliferation / cytotoxicity, SKOV-3; format: cell-based; details: SKOV-3 human ovary cancer cell line, read-out: Tumor Cell Line (IC50, nM) SKOV-3
Description: as §1

LNCaP = assay: Inhibition of proliferation / cytotoxicity, LNCaP; format: cell-based; details: LNCaP prostate cancer cell line, read-out: Tumor Cell Line (IC50, nM) LNCaP
Description: as §1

CCRF-CEM = assay: Inhibition of proliferation / cytotoxicity, CCRF-CEM; format: cell-based; details: CCRF-CEM human leukemia cell line; read-out: Tumor Cell Line (IC50, nM) CCRF-CEM
Description: as §1

CCRF-CEM/PTX = assay: Inhibition of proliferation / cytotoxicity, CCRF-CEM/PTX; format: cell-based; details: CCRF-CEM/PTX paclitaxel-resistant human leukemia subline; read-out: Tumor Cell Line (IC50, nM) CCRF-CEM/PTX
Description: as §1

[1] = Kudo et al., Exp. Cell Res. 1998; cited from earlier work
K562 cells = assay: Cytotoxicity against Bcr-Abl positive K562 cells; format: cell-based; details: K562, Bcr-Abl positive CML cell line
Description: Data was also obtained for the cytotoxicity of several compounds of this invention against K562, a Bcr-Abl positive CML cell line, as shown in Table 3 with comparative data for LMB included.

[2] = Mouse maximum tolerated dose, single dose intravenous; format: in vivo; details: mice, single dose intravenous administration
Description: The maximum tolerated dose (MTD) in mice, upon single dose intravenous administration was determined for a representative selection of compounds. The data are summarized in Table 4, with comparative data for LMB included.

MB 49 cells = assay: Cytotoxicity against MB 49 murine bladder cancer cells; format: cell-based
Description: Table 5 presents data on the cytotoxicity of LMB and selected compounds of this invention against MB 49 cells, a line of murine bladder cancer cells.

UMUC-3 = assay: Cytotoxicity against human bladder cancer cells UMUC-3; format: cell-based; details: UMUC3; UMUC-3 human bladder cancer cells
Description: (§2) Additionally, the cytotoxicity of LMB was determined against two lines of human bladder cancer cells (UMUC-3 and T24).

T24 = assay: Cytotoxicity against human bladder cancer cells T24; format: cell-based; details: T-24
Description: as §2

mammalian cells = details: Hamamoto et al., J. Antibiotics 1983; cited from earlier work
[3] = phase 1 trial halted in 1994; cited from earlier work

Row | SMILES | IC50 (MCF-7) [nM] | IC50 (NCI/ADR) [nM] | IC50 (A549) [nM] | IC50 (SKOV-3) [nM] | IC50 (LNCaP) [nM] | IC50 (CCRF-CEM) [nM] | IC50 (CCRF-CEM/PTX) [nM] | other results
1 | CCC(C=CC1OC(=O)C=CC1C)=CC(C)CC=CC(C)=CC(C)C(=O)C(C)C(O)C(C)CC(C)=CC(=O)NCC(=O)O (stereo not drawn) [Compound 21] | 31 | 260 | 37 | 57 | 28.6 |  |  | 
2 | CCC(C=CC1OC(=O)C=CC1C)=CC(C)CC=CC(C)=CC(C)C(=O)C(C)C(O)C(C)CC(C)=CC(=O)NCCNC(=O)OC(C)(C)C (stereo not drawn) [Compound 6] | 0.32 | 34 | 1.3 | 1.2 |  | 1.1 | 2.3 | 
3 | CCC(C=CC1OC(=O)C=CC1C)=CC(C)CC=CC(C)=CC(C)C(=O)C(C)C(O)C(C)CC(C)=CC(=O)NCCOc1ccccc1 (stereo not drawn) [Compound 9] | 0.64 | 37 | 2.8 | 4.3 |  | 1.9 | 2.5 | 
4 | CCC(C=CC1OC(=O)C=CC1C)=CC(C)CC=CC(C)=CC(C)C(=O)C(C)C(O)C(C)CC(C)=CC(=O)NCCCCNC(=O)OC(C)(C)C (stereo not drawn) [Compound 14] | 0.3 | 33 | 1.6 | 2.5 |  | 1.7 | 2.4 | 
5 | CCC(=C/[C@H](C)C/C=C/C(C)=C/[C@@H](C)C(=O)[C@@H](C)[C@H](O)[C@@H](C)C/C(C)=C/C(=O)NCCCCCCNC(=O)CCCC[C@H]1SC[C@@H]2NC(=O)N[C@@H]21)/C=C/[C@@H]1OC(=O)C=C[C@@H]1C [biotinylated LMB] |  |  |  |  |  |  |  | activity of LMB analog [1]: active
6 | CCC(C=CC1OC(=O)C=CC1C)=CC(C)CC=CC(C)=CC(C)C(=O)C(C)C(O)C(C)CC(C)=CC(=O)NCCC1OCCO1 (stereo not drawn) [Compound 11] | 0.3 | 5.8 | 0.67 | 1.5 |  | 0.43 | 0.47 | 
7 | CCC(C=CC1OC(=O)C=CC1C)=CC(C)CC=CC(C)=CC(C)C(=O)C(C)C(O)C(C)CC(C)=CC(=O)NCCNC(=O)CCC1=NC(=Cc2c(C)cc(C)n2B(F)F)C=C1 (stereo not drawn) [Compound 19] | 3.4 | 300 | 4.6 | 20 | 1.6 |  |  | 
8 | CCC(C=CC1OC(=O)C=CC1C)=CC(C)CC=CC(C)=CC(C)C(=O)C(C)C(O)C(C)CC(C)=CC(=O)NCCCCCNC(=O)COc1ccc(C2=NC(=Cc3ccc(-c4cccs4)n3B(F)F)C=C2)cc1 (stereo not drawn) [Compound 20] | 210 | 1000 | 250 | 570 | 87.4 |  |  | 
9 | CCC(C=CC1OC(=O)C=CC1C)=CC(C)CC=CC(C)=CC(C)C(=O)C(C)C(O)C(C)CC(C)=CC(=O)NCCc1cccnc1 (stereo not drawn) [Compound 4] | 0.32 | 19 | 0.84 | 2.8 | 0.5 | 1 | 1.4 | pIC50 (K562 cells): 8.77; Mouse MTD [2]: 40 mg/kg; pIC50 (MB 49 cells): 8.23
10 | CCC(C=CC1OC(=O)C=CC1C)=CC(C)CC=CC(C)=CC(C)C(=O)C(C)C(O)C(C)CC(C)=CC(=O)NCC(=O)OC (stereo not drawn) [Compound 10] | 0.3 | 4.6 | 1.4 | 2.7 | 0.8 | 0.63 | 0.5 | 
11 | CCC(C=CC1OC(=O)C=CC1C)=CC(C)CC=CC(C)=CC(C)C(=O)C(C)C(O)C(C)CC(C)=CC(=O)NCCNC(C)C (stereo not drawn) [Compound 17] | 3.5 | 740 | 4.7 | 44 |  |  |  | 
12 | CCC(C=CC1OC(=O)C=CC1C)=CC(C)CC=CC(C)=CC(C)C(=O)C(C)C(O)C(C)CC(C)=CC(=O)NCc1ccc(-c2ccccc2)cc1 (stereo not drawn) [Compound 3] | 3.7 | 150 | 13 | 13 |  | 3.5 | 17 | 
13 | CCC(C=CC1OC(=O)C=CC1C)=CC(C)CC=CC(C)=CC(C)C(=O)C(C)C(O)C(C)CC(C)=CC(=O)Nc1ccc2cn[nH]c2c1 (stereo not drawn) [Compound 5] | 2 | 34 | 3.3 | 5.9 |  | 3.1 | 9 | 
14 | CCC(C=CC1OC(=O)C=CC1C)=CC(C)CC=CC(C)=CC(C)C(=O)C(C)C(O)C(C)CC(C)=CC(=O)NCCCN1CCOCC1 (stereo not drawn) [Compound 8] | 0.3 | 39 | 0.84 | 2.5 | 0.5 | 0.98 | 2.1 | pIC50 (K562 cells): 9.00; Mouse MTD [2]: 20 mg/kg; pIC50 (MB 49 cells): 8.17
15 | CCC(C=CC1OC(=O)C=CC1C)=CC(C)CC=CC(C)=CC(C)C(=O)C(C)C(O)C(C)CC(C)=CC(=O)NCCNC (stereo not drawn) [Compound 16] | 3.2 | 460 | 3.5 | 9.7 | 27.2 | 1.8 | 29 | 
16 | CCC(C=CC1OC(=O)C=CC1C)=CC(C)CC=CC(C)=CC(C)C(=O)C(C)C(O)C(C)CC(C)=CC(=O)NCCO (stereo not drawn) [Compound 2] | 0.78 | 27 | 2.2 | 2.6 |  | 2.4 | 2.8 | 
17 | CCC(C=CC1OC(=O)C=CC1C)=CC(C)CC=CC(C)=CC(C)C(=O)C(C)C(O)C(C)CC(C)=CC(=O)NCCN (stereo not drawn) [Compound 15] | 4.6 | 630 | 15 | 41 | 4.2 | 17 | 110 | 
18 | CCC(=C/[C@H](C)C/C=C/C(C)=C/[C@@H](C)C(=O)[C@@H](C)[C@H](O)[C@@H](C)C/C(C)=C/C(=O)O)/C=C/[C@@H]1OC(=O)C=C[C@@H]1C [LMB, Leptomycin B, reference compound] |  |  | 0.3 |  |  | 0.65 | 0.41 | IC50 (MCF-7; MCF7): 0.29 nM; IC50 (NCI/ADR; Homo sapiens, NCI/ADR-RES): 1 nM; IC50 (SKOV-3; SK-OV-3): 1.5 nM; IC50 (LNCaP; Homo sapiens): 0.3 nM; pIC50 (K562 cells; Homo sapiens): 9.22; Mouse MTD [2]: 2.5 mg/kg; pIC50 (MB 49 cells; Mus musculus, MB49): 8.74; pEC50 (UMUC-3): 9.48; pEC50 (T24): 8.92; cytotoxicity towards mammalian cells (mammalian cells): remarkable cytotoxicity; toxicity in phase 1 trial [3]: extreme toxicity
19 | CCC(C=CC1OC(=O)C=CC1C)=CC(C)CC=CC(C)=CC(C)C(=O)C(C)C(O)C(C)CC(C)=CC(=O)NCCN(C)C (stereo not drawn) [Compound 7] | 0.61 | 110 | 2.2 | 2.8 | 0.7 | 1.4 | 3.1 | Mouse MTD [2]: 15 mg/kg
20 | CCC(C=CC1OC(=O)C=CC1C)=CC(C)CC=CC(C)=CC(C)C(=O)C(C)C(O)C(C)CC(C)=CC(=O)NC (stereo not drawn) [Compound 1] | 0.27 | 2.1 | 0.36 | 1.7 | 0.8 | 0.69 | 0.46 | Mouse MTD [2]: 5 mg/kg
21 | CCC(=C/[C@H](C)C/C=C/C(C)=C/[C@@H](C)C(=O)[C@@H](C)[C@H](O)[C@@H](C)C/C(C)=C/C(=O)OC)/C=C/[C@@H]1OC(=O)CC(C[N+](=O)[O-])[C@@H]1C (stereo partly drawn) [nitromethyl valerolactone LMB analog] |  |  |  |  |  |  |  | activity of LMB analog [1]: inactive
22 | CCC(C=CC1OC(=O)C=CC1C)=CC(C)CC=CC(C)=CC(C)C(=O)C(C)C(O)C(C)CC(C)=CC(=O)NCc1c(C)c(=O)n2c(=O)c(C)c(C)n12 (stereo not drawn) [Compound 18] | 3.4 | 380 | 4.3 | 15 |  |  |  | 
